Data from patent US10947252B2, “Inhibitors of KEAP1-Nrf2 protein-protein interaction” (Janssen Pharmaceutica NV, priority 2018, dated 2021).

Tests used:
[1] = molecular target: Kelch domain of human KEAP1 (321-624 aa) (Homo sapiens (Human), UniProt Q14145); test: KEAP1 KELCH ThermoFluor binding assay; conditions: KEAP Kelch […], 1,8-ANS, pH 7.0, average of results obtained, read-out: Tf Kd;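 further: Ligand-induced melting temperature shift of E. coli-expressed KEAP1 Kelch protein, Kd estimated from concentration-response curves of ΔTm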
Sequence of Kelch domain of human KEAP1 (321-624 aa) (Q14145 321-624): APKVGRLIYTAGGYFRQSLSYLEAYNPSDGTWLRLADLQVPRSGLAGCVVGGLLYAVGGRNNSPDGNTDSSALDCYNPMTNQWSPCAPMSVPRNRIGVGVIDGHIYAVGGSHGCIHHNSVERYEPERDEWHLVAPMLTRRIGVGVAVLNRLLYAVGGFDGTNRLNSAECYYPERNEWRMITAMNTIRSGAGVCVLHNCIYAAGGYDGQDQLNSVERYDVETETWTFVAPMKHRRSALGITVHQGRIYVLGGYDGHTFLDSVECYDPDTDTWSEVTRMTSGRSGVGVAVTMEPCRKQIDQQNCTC

[2] = tested on: Glo-Response ARE-luc2P HEK293 cell line; test: ARE luciferase reporter cell-based assay; conditions: Homo sapiens, HEK293, 24 h, average of results obtained;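 further: luciferase signal tracks Nrf2 activation of the ARE once compounds disrupt KEAP1-Nrf2 binding, read with One-Glo reagent, DMSO serving as low control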

Kd [1] [nM] | SMILES | EC50 [2] [nM]
0.081 | CCn1nnc2c(C)c([C@H](CC(=O)O)c3ccc(C)c(CN4C[C@H]5CCCN5c5ncccc5S4(=O)=O)c3)ccc21 (single isomer, unassigned) [Example 22, (*R)-3-(3-(((R)-5,5-Dioxido-7a,8,9,10-tetrahydropyrido[2,3-f]pyrrolo[2,1-d][1,2,5]thiadiazepin-6(7H)-yl)methyl)-4-methylphenyl)-3-(1-ethyl-4-methyl-1H-benzo[d][1,2,3]triazol-5-yl)propanoic Acid] | 3.9
0.264 | Cc1ccc([C@H](CC(=O)O)c2ccc3c(nnn3C3CC3)c2C)cc1CN1C[C@@H]2COCCN2c2ncccc2S1(=O)=O (single isomer, unassigned) [Example 24, (*S)-3-(1-Cyclopropyl-4-methyl-1H-benzo[d][1,2,3]triazol-5-yl)-3-(3-(((*R)-5,5-dioxido-7a,8,10,11-tetrahydro-[1,4]oxazino[3,4-d]pyrido[2,3-f][1,2,5]thiadiazepin-6(7H)-yl)methyl)-4-methylphenyl)propanoic Acid] | 4.1
2.12 | Cc1ccc([C@@H](CC(=O)O)c2ccc3c(nnn3C3CC3)c2C)cc1CN1C[C@@H]2COCCN2c2ncccc2S1(=O)=O (single isomer, unassigned) [Example 25, (*R)-3-(1-Cyclopropyl-4-methyl-1H-benzo[d][1,2,3]triazol-5-yl)-3-(3-(((*R)-5,5-dioxido-7a,8,10,11-tetrahydro-[1,4]oxazino[3,4-d]pyrido[2,3-f][1,2,5]thiadiazepin-6(7H)-yl)methyl)-4-methylphenyl)propanoic Acid] | 21
0.174 | Cc1ccc([C@H](CC(=O)O)c2ccn3c(C(F)(F)F)nnc3c2C)cc1CN1CC2(COC2)Oc2ccccc2S1(=O)=O (single isomer, unassigned) [Example 26, (*S)-3-(3-((1,1-Dioxidospiro[benzo[b][1,4,5]oxathiazepine-4,3′-oxetan]-2(3H)-yl)methyl)-4-methylphenyl)-3-(8-methyl-3-(trifluoromethyl)-[1,2,4]triazolo[4,3-a]pyridin-7-yl)propanoic Acid] | 32
< 1 | Cc1ccc([C@@H](CC(=O)O)c2ccn3c(C(F)F)nnc3c2C)cc1CN1C[C@@H]2CCCCN2c2ncc(C#N)cc2S1(=O)=O (single isomer, unassigned) [Example 29, (*R)-3-(3-(((*S)-3-Cyano-5,5-dioxido-7,7a,8,9,10,11-hexahydro-6H-dipyrido[2,1-d:2′,3′-f][1,2,5]thiadiazepin-6-yl)methyl)-4-methylphenyl)-3-(3-(difluoromethyl)-8-methyl-[1,2,4]triazolo[4,3-a]pyridin-7-yl)propanoic Acid] | 50.9
< 1 | Cc1ccc([C@@H](CC(=O)O)c2ccn3c(C(F)F)nnc3c2C)cc1CN1C[C@H]2CCCCN2c2ncc(C#N)cc2S1(=O)=O (single isomer, unassigned) [Example 30, (*R)-3-(3-(((*R)-3-Cyano-5,5-dioxido-7,7a,8,9,10,11-hexahydro-6H-dipyrido[2,1-d:2′,3′-f][1,2,5]thiadiazepin-6-yl)methyl)-4-methylphenyl)-3-(3-(difluoromethyl)-8-methyl-[1,2,4]triazolo[4,3-a]pyridin-7-yl)propanoic Acid] | 73.7
< 1 | Cc1ccc([C@@H](CC(=O)O)c2ccn3c(C(F)(F)F)nnc3c2C)nc1CN1C[C@@H]2CCCCN2c2ncc(C#N)cc2S1(=O)=O (single isomer, unassigned) [Example 34, (*S)-3-(6-(((*S)-3-Cyano-5,5-dioxido-7,7a,8,9,10,11-hexahydro-6H-dipyrido[2,1-d:2′,3′-f][1,2,5]thiadiazepin-6-yl)methyl)-5-methylpyridin-2-yl)-3-(8-methyl-3-(trifluoromethyl)-[1,2,4]triazolo[4,3-a]pyridin-7-yl)propanoic Acid] | 119
< 1 | Cc1ccc([C@@H](CC(=O)O)c2ccn3c(C(F)(F)F)nnc3c2C)nc1CN1C[C@H]2CCCCN2c2ncc(C#N)cc2S1(=O)=O (single isomer, unassigned) [Example 35, (*S)-3-(6-(((*R)-3-Cyano-5,5-dioxido-7,7a,8,9,10,11-hexahydro-6H-dipyrido[2,1-d:2′,3′-f][1,2,5]thiadiazepin-6-yl)methyl)-5-methylpyridin-2-yl)-3-(8-methyl-3-(trifluoromethyl)-[1,2,4]triazolo[4,3-a]pyridin-7-yl)propanoic Acid] | 65.7
< 1 | Cc1ccc([C@H](CC(=O)O)c2ccn3c(C(F)(F)F)nnc3c2C)nc1CN1C[C@H]2CCCCN2c2ncc(C#N)cc2S1(=O)=O (single isomer, unassigned) [Example 36, (*R)-3-(6-(((*R)-3-Cyano-5,5-dioxido-7,7a,8,9,10,11-hexahydro-6H-dipyrido[2,1-d:2′,3′-f][1,2,5]thiadiazepin-6-yl)methyl)-5-methylpyridin-2-yl)-3-(8-methyl-3-(trifluoromethyl)-[1,2,4]triazolo[4,3-a]pyridin-7-yl)propanoic Acid] | 15.2
< 1 | Cc1ccc([C@H](CC(=O)O)c2ccn3c(C(F)(F)F)nnc3c2C)nc1CN1C[C@@H]2CCCCN2c2ncc(C#N)cc2S1(=O)=O (single isomer, unassigned) [Example 37, (*R)-3-(6-(((*S)-3-Cyano-5,5-dioxido-7,7a,8,9,10,11-hexahydro-6H-dipyrido[2,1-d:2′,3′-f][1,2,5]thiadiazepin-6-yl)methyl)-5-methylpyridin-2-yl)-3-(8-methyl-3-(trifluoromethyl)-[1,2,4]triazolo[4,3-a]pyridin-7-yl)propanoic Acid] | 25.7
< 1 | Cc1ccc([C@@H](c2ccn3c(C(F)(F)F)nnc3c2C)C(C)(C)C(=O)O)nc1CN1CC2(CCOCC2)Oc2ncccc2S1(=O)=O (single isomer, unassigned) [Example 38, (*S)-3-(6-((1′,1′-Dioxido-2,3,5,6-tetrahydrospiro[pyran-4,4′-pyrido[2,3-b][1,4,5]oxathiazepin]-2′(3′H)-yl)methyl)-5-methylpyridin-2-yl)-2,2-dimethyl-3-(8-methyl-3-(trifluoromethyl)-[1,2,4]triazolo[4,3-a]pyridin-7-yl)propanoic Acid] | 7.2
4250 | Cc1ccc([C@H](c2ccn3c(C(F)(F)F)nnc3c2C)C(C)(C)C(=O)O)nc1CN1CC2(CCOCC2)Oc2ncccc2S1(=O)=O (single isomer, unassigned) [Example 39, (*R)-3-(6-((1′,1′-Dioxido-2,3,5,6-tetrahydrospiro[pyran-4,4′-pyrido[2,3-b][1,4,5]oxathiazepin]-2′(3′H)-yl)methyl)-5-methylpyridin-2-yl)-2,2-dimethyl-3-(8-methyl-3-(trifluoromethyl)-[1,2,4]triazolo[4,3-a]pyridin-7-yl)propanoic Acid] | 1260
< 1 | Cc1ccc([C@@H](c2ccn3c(C4CC4)nnc3c2C)C(C)(C)C(=O)O)cc1CN1CC2(CCOCC2)Oc2ncccc2S1(=O)=O (single isomer, unassigned) [Example 41, (*S)-3-(3-Cyclopropyl-8-methyl-[1,2,4]triazolo[4,3-a]pyridin-7-yl)-3-(3-((1′,1′-dioxido-2,3,5,6-tetrahydrospiro[pyran-4,4′-pyrido[2,3-b][1,4,5]oxathiazepin]-2′(3′H)-yl)methyl)-4-methylphenyl)-2,2-dimethylpropanoic Acid] | 46
7540 | Cc1ccc([C@H](c2ccn3c(C4CC4)nnc3c2C)C(C)(C)C(=O)O)cc1CN1CC2(CCOCC2)Oc2ncccc2S1(=O)=O (single isomer, unassigned) [Example 42, (*R)-3-(3-Cyclopropyl-8-methyl-[1,2,4]triazolo[4,3-a]pyridin-7-yl)-3-(3-((1′,1′-dioxido-2,3,5,6-tetrahydrospiro[pyran-4,4′-pyrido[2,3-b][1,4,5]oxathiazepin]-2′(3′H)-yl)methyl)-4-methylphenyl)-2,2-dimethylpropanoic Acid] | 3460
< 1 | Cc1ncc([C@H](c2ccc3c(nnn3C3CC3)c2C)C(C)(C)C(=O)O)cc1CN1CC2(CCOCC2)Oc2ncccc2S1(=O)=O (single isomer, unassigned) [Example 44, (*S)-3-(1-Cyclopropyl-4-methyl-1H-benzo[d][1,2,3]triazol-5-yl)-3-(5-((1′,1′-dioxido-2,3,5,6-tetrahydrospiro[pyran-4,4′-pyrido[2,3-b][1,4,5]oxathiazepin]-2′(3′H)-yl)methyl)-6-methylpyridin-3-yl)-2,2-dimethylpropanoic Acid] | 54.3
42600 | Cc1ncc([C@@H](c2ccc3c(nnn3C3CC3)c2C)C(C)(C)C(=O)O)cc1CN1CC2(CCOCC2)Oc2ncccc2S1(=O)=O (single isomer, unassigned) [Example 45, (*R)-3-(1-Cyclopropyl-4-methyl-1H-benzo[d][1,2,3]triazol-5-yl)-3-(5-((1′,1′-dioxido-2,3,5,6-tetrahydrospiro[pyran-4,4′-pyrido[2,3-b][1,4,5]oxathiazepin]-2′(3′H)-yl)methyl)-6-methylpyridin-3-yl)-2,2-dimethylpropanoic Acid] | 6560
< 1 | Cc1ccc([C@@H](c2ccn3c(C(F)(F)F)nnc3c2C)C(C)(C)C(=O)O)cc1CN1CC2(CCOCC2)Oc2nc(OCCN3CCOCC3)ccc2S1(=O)=O (single isomer, unassigned) [Example 47, (*S)-2,2-Dimethyl-3-(4-methyl-3-((7′-(2-morpholinoethoxy)-1′,1′-dioxido-2,3,5,6-tetrahydrospiro[pyran-4,4′-pyrido[2,3-b][1,4,5]oxathiazepin]-2′(3′H)-yl)methyl)phenyl)-3-(8-methyl-3-trifluoromethyl)-[1,2,4]triazolo[4,3-a]pyridine-7-yl)propanoic Acid] | 17.9
